For one series, the system named is A549. The series is described as follows: Inhibition of tumor cells, MTS method. The following applies: Homo sapiens, 72 hours. The series is classed as cell-based. On the procedure: (§1) (1) Compounds: in vitro studies the test compounds was dissolved in 100% DMSO and diluted until the final concentration of DMSO was 0.1%. The 0.1% (v/v) DMSO was added into culture medium as solvent control. 9 concentration gradients were tested and each gradient was repeated twice. (2) Tumor cell lines: the tumor cell lines were cultivated in RPMI10 culture medium containing 10% fetal calf serum in incubator at 37° C. in a 5% CO2 air incubator. The tested tumor cell lines were: BT474, MDA-MB-231, SK-Br-3, A431, H292, H1975, HCC827, A549, H1650 and H1734. (3) MTS method: cells were seeded into 96-well plate to give a density of about 3000 cells per well, and incubated overnight in a humidified incubator at 37° C. In the next day, the test compounds were added to the wells and further incubated for 72 hours. The cell activity was detected using MTS. IC50 was calculated (the concentration of a compound that is required for 50% inhibition of the cell growth versus the DMSO control group, using nonlinear regression analysis of software GraphPad Prism). […] In a 96-well plate, each test compound was tested at 9 dosage concentrations and each dosage was made in triplicate. Samples were added in 100 μL/well. Cell control and negative control wells contained diluents instead of compounds. Except the negative control well, 100 μL cell suspension of complete medium was added into each test well, wherein corresponding cell numbers were included to assure that the cells in cell control well just cover the bottom of the well as the required incubation time was reached. The plate was incubated in a CO2 incubator at 37° C. for 48 hours. The liquid in test wells was removed by pipetting. 100 μL CCK-8 (Cell counting Kit-8, purchased from DOJINDO Molecular Technologies) detection liquid (containing 10% CCK-8, 5% FBS corresponding medium) was added into each test well, then the plate was incubated in a CO2 incubator under at 37° C. for 3 hours. OD value was detected by ELIASA at A450 nm. Cell viability percentage (%)=(O.D. test compound-O.D. blank)/(O.D. control-O.D. blank)×100. Mean value was calculated for each 3 repeated wells, and IC50 was calculated using nonlinear regression (fitted curve) data analysis method.
Background: Tetrazolium dyes change colour on reduction, which living cells bring about.

For another series, the system named is H1650. The series is described as follows: Inhibition of tumor cells, MTS method. The series is classed as cell-based. Conditions: Homo sapiens, NCI-H1650, 72 hours. How it is done:
as §1

Another series deals with H1734. The series is described as follows: Inhibition of tumor cells, MTS method. Conditions: Homo sapiens, NCI-H1734, 72 hours. The series is classed as cell-based. How it is done: as §1
In another series the test system is SK-Br-3. The series is described as follows: Inhibition of tumor cells, MTS method. It is filed as cell-based. The following applies: Homo sapiens, 72 hours. On the procedure: as §1
The next series deals with HCC827. The series is described as follows: Inhibition of tumor cells, MTS method. It is filed as cell-based. Conditions: Homo sapiens, 72 hours. How it is done: as §1
The test system of a further series is BT474. The series is described as follows: Inhibition of tumor cells, MTS method. Conditions: Homo sapiens, BT-474, 72 hours. The series is classed as cell-based. How it is done:
as §1

Another series deals with H1975. The series is described as follows: Inhibition of tumor cells, MTS method. The series is classed as cell-based. The following applies: Homo sapiens, NCI-H1975, 72 hours. On the procedure: as §1
In a further series the test system is A431. The series is described as follows: Inhibition of tumor cells, MTS method. The series is classed as cell-based. Conditions: Homo sapiens, A-431, 72 hours. How it is done: as §1
The test system of another series is H292. The series is described as follows: Inhibition of tumor cells, MTS method. It is filed as cell-based. The following applies: Homo sapiens, NCI-H292, 72 hours. On the procedure: as §1
In a further series the target is EGFR^L858R/T790M (Homo sapiens, UniProt P00533, L858R/T790M). The series is described as follows: Caliper Mobility Shift Assay, double mutant EGFR kinase. The following applies: read-out: Inhibition of Kinase Activity (IC50, nM) EGFR^L858R/T790M. The series is classed as biochemical. How it is done:
Half maximal inhibitory concentration IC50 (the concentration of a compound that is required for 50% inhibition of the activity of an enzyme) was tested based on an immobilized enzyme mixing with a specific substrate and the test compounds in different concentrations. The used test method was Caliper Mobility Shift Assay. […] […].
According to the same test method, the inhibitory effects of the compound of Formula Ie on mutant EGFR kinases were tested, including single mutant EGFR^LS58R, EGFR^T790M and double mutant EGFR^L858R/T790M kinases.

Another series deals with HER2 (Homo sapiens, UniProt P04626). The series is described as follows: Caliper Mobility Shift Assay, inhibition of HER2 kinase activity. The series is classed as biochemical.
The nature of series [1]: Long-term toxicity experiment (28 days) in rats. The series is classed as in vivo. Conditions: for toxicity reaction: po. On the procedure:
Experiment Animals: rats, male, 6-8 weeks of age, body weight: 180-250 g; dogs, male, about 24 months, body weight: 7-10 kg.
Preparation of sample: in rat's experiments the mixed formulation powder of the compound Ie was formulated into 0.1, 0.3 and 1 mg/mL homogeneous suspension for use; administration route: oral administration; […]. In dog's experiments the tablets of compound Ie were fed to dogs. […].
Sample collection: blood was collected at the time points of 1, 10, 20 and 28 days respectively, about 120-200 μL whole blood was collected from 3 animals at each time point. Blood was collected at 1 h, 4 h, 8 h and 24 h after administration.
Sample analysis: the collected samples were detected by LC-MS/MS, and the instrument model was SHIMADZU20 A-API4000.
Pharmacokinetic data analysis: the obtained plasma concentration data were fitted and calculated using WinNolin according to non-compartment model.

Chain of HER2 (P04626 23-1255): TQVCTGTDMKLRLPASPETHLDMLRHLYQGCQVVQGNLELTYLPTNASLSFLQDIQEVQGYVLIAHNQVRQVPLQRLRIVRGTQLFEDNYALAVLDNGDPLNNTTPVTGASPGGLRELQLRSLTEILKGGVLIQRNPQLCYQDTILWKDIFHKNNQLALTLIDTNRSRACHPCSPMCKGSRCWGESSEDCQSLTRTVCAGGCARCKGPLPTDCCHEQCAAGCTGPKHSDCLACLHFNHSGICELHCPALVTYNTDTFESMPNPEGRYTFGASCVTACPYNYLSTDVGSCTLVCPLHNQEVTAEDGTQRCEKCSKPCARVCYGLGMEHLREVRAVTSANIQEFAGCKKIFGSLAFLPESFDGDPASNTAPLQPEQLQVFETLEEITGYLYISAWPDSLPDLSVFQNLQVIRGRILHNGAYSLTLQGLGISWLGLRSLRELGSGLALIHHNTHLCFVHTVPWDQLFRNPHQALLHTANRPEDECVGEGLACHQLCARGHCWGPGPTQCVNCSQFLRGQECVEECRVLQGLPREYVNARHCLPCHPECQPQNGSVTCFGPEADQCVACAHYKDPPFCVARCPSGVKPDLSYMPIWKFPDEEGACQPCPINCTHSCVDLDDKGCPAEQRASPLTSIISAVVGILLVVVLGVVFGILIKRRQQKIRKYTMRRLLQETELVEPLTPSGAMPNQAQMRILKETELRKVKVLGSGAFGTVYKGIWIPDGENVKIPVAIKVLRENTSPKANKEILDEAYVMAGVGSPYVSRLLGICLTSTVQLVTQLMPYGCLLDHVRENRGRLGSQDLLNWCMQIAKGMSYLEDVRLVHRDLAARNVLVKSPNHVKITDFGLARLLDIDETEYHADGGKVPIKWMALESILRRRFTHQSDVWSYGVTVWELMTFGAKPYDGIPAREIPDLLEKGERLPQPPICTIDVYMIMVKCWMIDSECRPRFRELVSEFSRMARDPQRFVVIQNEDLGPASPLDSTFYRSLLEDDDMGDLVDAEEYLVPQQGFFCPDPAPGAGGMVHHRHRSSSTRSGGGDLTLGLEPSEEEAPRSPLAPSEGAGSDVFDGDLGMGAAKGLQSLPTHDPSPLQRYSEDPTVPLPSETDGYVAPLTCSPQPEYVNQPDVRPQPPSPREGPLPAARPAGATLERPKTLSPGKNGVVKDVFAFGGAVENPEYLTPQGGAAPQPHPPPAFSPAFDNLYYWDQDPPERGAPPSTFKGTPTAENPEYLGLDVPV
Chain of EGFR^L858R/T790M (P00533 25-1210 T790M/L858R): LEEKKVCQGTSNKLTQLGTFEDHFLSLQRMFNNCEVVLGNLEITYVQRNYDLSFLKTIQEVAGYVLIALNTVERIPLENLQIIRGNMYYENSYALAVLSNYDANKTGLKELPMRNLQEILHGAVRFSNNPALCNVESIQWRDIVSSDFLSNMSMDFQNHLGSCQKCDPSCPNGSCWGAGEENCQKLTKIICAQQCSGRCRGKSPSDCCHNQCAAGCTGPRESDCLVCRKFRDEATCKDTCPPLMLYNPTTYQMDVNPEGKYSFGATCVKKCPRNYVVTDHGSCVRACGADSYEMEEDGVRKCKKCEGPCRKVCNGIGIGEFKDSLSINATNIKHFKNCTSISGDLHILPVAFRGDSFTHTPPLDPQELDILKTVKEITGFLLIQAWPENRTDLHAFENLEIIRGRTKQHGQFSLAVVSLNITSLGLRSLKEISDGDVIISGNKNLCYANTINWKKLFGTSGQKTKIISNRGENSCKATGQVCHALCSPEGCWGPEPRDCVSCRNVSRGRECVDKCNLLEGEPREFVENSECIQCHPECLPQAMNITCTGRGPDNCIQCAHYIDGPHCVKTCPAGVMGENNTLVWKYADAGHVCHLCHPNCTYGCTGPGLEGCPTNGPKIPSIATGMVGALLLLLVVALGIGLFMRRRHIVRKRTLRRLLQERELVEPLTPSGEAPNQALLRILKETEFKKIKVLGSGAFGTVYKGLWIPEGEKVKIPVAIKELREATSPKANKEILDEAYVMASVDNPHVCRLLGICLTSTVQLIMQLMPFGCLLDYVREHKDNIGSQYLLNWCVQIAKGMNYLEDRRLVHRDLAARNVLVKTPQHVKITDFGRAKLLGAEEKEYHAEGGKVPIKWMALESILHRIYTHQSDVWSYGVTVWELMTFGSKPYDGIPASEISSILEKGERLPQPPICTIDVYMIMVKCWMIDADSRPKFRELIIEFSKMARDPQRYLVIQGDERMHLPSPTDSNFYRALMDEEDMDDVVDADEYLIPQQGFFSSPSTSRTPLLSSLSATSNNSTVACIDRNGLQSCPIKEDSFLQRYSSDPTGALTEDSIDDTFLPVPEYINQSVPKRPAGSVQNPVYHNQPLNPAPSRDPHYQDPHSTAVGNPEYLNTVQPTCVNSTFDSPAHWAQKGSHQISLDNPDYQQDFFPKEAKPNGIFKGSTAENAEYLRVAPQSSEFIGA

On to `CN(C)C/C=C/C(=O)Nc1cc2c(Nc3ccc(F)c(Cl)c3)ncnc2cc1OC(F)F` [Compound Ie], for which the IC50 is 3.72 µM in the series on A549; 3.24 µM with H1650; 0.539 µM in the series with H1734; 0.23 µM in the series on SK-Br-3; 0.002 µM in the series on HCC827; 0.034 µM with BT474. The IC50 in the series on H1975 worked out at 0.8 µM; with A431, 0.652 µM; in the series on H292, 2.65 µM; at EGFR^L858R/T790M, 11 nM; at HER2, 11.7 nM. For the same compound, the “reversibility of toxicity reaction after drug withdrawal” value in series [1] (rat, in vivo) is on record as “reversible”. The toxicity reaction result in series [1] (rat, in vivo, 1 mg/kg) is “no toxicity reaction”; in [1] (rat, in vivo, 3 mg/kg), “no toxicity reaction”. In addition, in [1] (rats, oral, 28 days), the “AUC relative to Afatinib in the same dosage” value is “about 5 times”. Moreover, the “time after drug withdrawal until weight close to control group” value in series [1] (rats, 1, 3 and 10 mg/kg groups) lay in the range of 5 to 6 days. Besides, the “weight recovery after drug withdrawal” value in [1] (rats, compound Ie 1, 3 and 10 mg/kg groups) is reported as “regain weight very quickly”.

These data come from US20150065709A1, “Aminoquinazoline Derivative And Use Thereof In Preparing Anti-Malignant Tumor Medicament” (METABOMICS, INC, priority 2012, published 2015).
